The supplement of paper PMC10307832

Each cell line was assayed with CC(C)N(CCCNC(=O)Nc1ccc(C(C)(C)C)cc1)C[C@H]1O[C@@H](n2ccc3c(N)ncnc32)[C@H](O)[C@@H]1O + CC(=O)Nc1cccc(-n2c(=O)n(C3CC3)c(=O)c3c(Nc4ccc(I)cc4F)n(C)c(=O)c(C)c32)c1 [Trametinib] (partner 0.02 µM) (assay: relative viability (nuclei count vs DMSO), 5 days (fraction); higher = more cells survive). Details: first compound 0.08 µM.
In short: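 Lung cancer cell lines, seeded in 1536-well plates, were treated the following day by pin tool with a single drug or with five library-drug doses (not always all listed) in √10 steps on top of a fixed anchor-drug dose. Cells were fixed and nuclei stained in one step after 5 days, and nuclei were counted. Relative viability is the nuclei count for treated wells divided by that for vehicle wells, reported as medians of duplicate plates.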
Cell Line NCI-H596 has a relative viability of 0.858.
In the case of NCI-H2405, the relative viability was 0.669.
NCI-H1395 gave a relative viability of 0.956.
Work on 201T yielded a relative viability of 0.719.
NCI-H1915 was tested, and the relative viability was 0.3.
HCC-827 gave a relative viability of 0.499.
LXF-289 showed a relative viability of 0.661.
With NCI-H2347 the relative viability was 0.248.
Cell Line NCI-H661 has a relative viability of 0.544.
For CAL-12T, the relative viability was 0.346.
Work on NCI-H1651 yielded a relative viability of 0.84.
Work on EPLC-272H yielded a relative viability of 0.246.
NCI-H23 gave a relative viability of 0.336.
NCI-H1792 gave a relative viability of 0.397.
For NCI-H1355, the relative viability was 0.419.
Work on NCI-H322M yielded a relative viability of 0.5.
With NCI-H1437 the relative viability was 0.472.
With NCI-H1755 the relative viability was 0.758.
With NCI-H2085 the relative viability was 0.509.
In the case of HCC-15, the relative viability was 0.338.
NCI-H1793 was tested, and the relative viability was 0.394.
RERF-LC-KJ showed a relative viability of 0.902.
Work on EKVX yielded a relative viability of 0.392.
In the case of LC-2-ad, the relative viability was 0.848.
Cell Line NCI-H1944 has a relative viability of 0.362.
In the case of NCI-H1975, the relative viability was 0.347.

Same assay, conditions: first compound 0.253 µM
With HARA the relative viability was 0.412.
In the case of NCI-H441, the relative viability was 0.432.
LCLC-97TM1 gave a relative viability of 0.202.
In the case of NCI-H2023, the relative viability was 0.579.
For A-427, the relative viability was 0.816.
NCI-H460 was tested, and the relative viability was 0.0737.
For NCI-H838, the relative viability was 0.328.
NCI-H1734 gave a relative viability of 0.653.
Cell Line NCI-H596 has a relative viability of 0.759.
NCI-H2405 gave a relative viability of 0.591.
In the case of NCI-H1395, the relative viability was 0.986.
With 201T the relative viability was 0.692.
With NCI-H1915 the relative viability was 0.306.
For HCC-827, the relative viability was 0.473.
LXF-289 gave a relative viability of 0.684.
Work on NCI-H2347 yielded a relative viability of 0.281.
NCI-H661 was tested, and the relative viability was 0.551.
For CAL-12T, the relative viability was 0.345.
NCI-H1651 gave a relative viability of 0.85.
For EPLC-272H, the relative viability was 0.273.
For NCI-H1355, the relative viability was 0.416.
In the case of NCI-H322M, the relative viability was 0.533.
NCI-H1437 was tested, and the relative viability was 0.521.
NCI-H1755 showed a relative viability of 0.736.
Cell Line NCI-H2085 has a relative viability of 0.455.
HCC-15 showed a relative viability of 0.363.
Work on RERF-LC-KJ yielded a relative viability of 0.938.
EKVX showed a relative viability of 0.339.
In the case of LC-2-ad, the relative viability was 0.936.
Work on NCI-H1944 yielded a relative viability of 0.39.
NCI-H1975 showed a relative viability of 0.29.

Same assay, conditions: first compound 0.8 µM
HARA gave a relative viability of 0.54.
Cell Line LCLC-97TM1 has a relative viability of 0.184.
With NCI-H2023 the relative viability was 0.559.
In the case of A-427, the relative viability was 0.677.
NCI-H460 showed a relative viability of 0.0752.
NCI-H838 was tested, and the relative viability was 0.464.
Cell Line NCI-H1734 has a relative viability of 0.69.
For NCI-H596, the relative viability was 0.842.
NCI-H2405 showed a relative viability of 0.598.
NCI-H1395 was tested, and the relative viability was 0.979.
For NCI-H1915, the relative viability was 0.302.
HCC-827 was tested, and the relative viability was 0.572.
Cell Line LXF-289 has a relative viability of 0.651.
Cell Line NCI-H2347 has a relative viability of 0.251.
NCI-H661 showed a relative viability of 0.551.
CAL-12T gave a relative viability of 0.362.
For NCI-H1651, the relative viability was 0.795.
In the case of EPLC-272H, the relative viability was 0.27.
Work on NCI-H23 yielded a relative viability of 0.361.
Cell Line NCI-H1792 has a relative viability of 0.372.
With NCI-H1355 the relative viability was 0.388.
NCI-H322M gave a relative viability of 0.544.
NCI-H1437 gave a relative viability of 0.496.
NCI-H1755 showed a relative viability of 0.719.
Work on NCI-H2085 yielded a relative viability of 0.685.
In the case of HCC-15, the relative viability was 0.401.
NCI-H1793 gave a relative viability of 0.367.
RERF-LC-KJ showed a relative viability of 0.815.
EKVX was tested, and the relative viability was 0.376.
LC-2-ad was tested, and the relative viability was 0.895.
NCI-H1944 gave a relative viability of 0.372.
Work on NCI-H1975 yielded a relative viability of 0.167.

Same assay, conditions: first compound 2.53 µM
With HARA the relative viability was 0.511.
With NCI-H441 the relative viability was 0.498.
LCLC-97TM1 gave a relative viability of 0.193.
With NCI-H2023 the relative viability was 0.495.
A-427 showed a relative viability of 0.806.
In the case of NCI-H460, the relative viability was 0.127.
With NCI-H838 the relative viability was 0.559.
In the case of NCI-H1734, the relative viability was 0.703.
NCI-H596 was tested, and the relative viability was 0.753.
Cell Line NCI-H2405 has a relative viability of 0.765.
In the case of NCI-H1395, the relative viability was 1.01.
201T showed a relative viability of 0.733.
NCI-H1915 showed a relative viability of 0.311.
Work on HCC-827 yielded a relative viability of 0.537.
LXF-289 showed a relative viability of 0.732.
With NCI-H2347 the relative viability was 0.284.
NCI-H661 showed a relative viability of 0.675.
For CAL-12T, the relative viability was 0.323.
For NCI-H1651, the relative viability was 0.859.
For EPLC-272H, the relative viability was 0.333.
NCI-H23 showed a relative viability of 0.547.
Work on NCI-H1792 yielded a relative viability of 0.419.
In the case of NCI-H1355, the relative viability was 0.458.
NCI-H322M was tested, and the relative viability was 0.475.
With NCI-H1437 the relative viability was 0.428.
NCI-H1755 was tested, and the relative viability was 0.733.
For NCI-H2085, the relative viability was 0.572.
Work on HCC-15 yielded a relative viability of 0.362.
In the case of NCI-H1793, the relative viability was 0.446.
RERF-LC-KJ was tested, and the relative viability was 0.911.
Work on EKVX yielded a relative viability of 0.359.
LC-2-ad was tested, and the relative viability was 0.917.
NCI-H1944 gave a relative viability of 0.439.
For NCI-H1975, the relative viability was 0.308.

Same assay, conditions: first compound 8 µM
HARA was tested, and the relative viability was 0.508.
In the case of NCI-H441, the relative viability was 0.474.
LCLC-97TM1 gave a relative viability of 0.187.
In the case of NCI-H2023, the relative viability was 0.459.
Cell Line A-427 has a relative viability of 0.743.
Cell Line NCI-H460 has a relative viability of 0.129.
NCI-H838 was tested, and the relative viability was 0.529.
For NCI-H1734, the relative viability was 0.561.
NCI-H596 showed a relative viability of 0.765.
In the case of NCI-H2405, the relative viability was 0.644.
NCI-H1395 gave a relative viability of 1.04.
For 201T, the relative viability was 0.695.
NCI-H1915 showed a relative viability of 0.292.
For HCC-827, the relative viability was 0.505.
Work on LXF-289 yielded a relative viability of 0.71.
Cell Line NCI-H2347 has a relative viability of 0.282.
With NCI-H661 the relative viability was 0.619.
CAL-12T gave a relative viability of 0.306.
NCI-H1651 gave a relative viability of 0.894.
EPLC-272H gave a relative viability of 0.298.
With NCI-H23 the relative viability was 0.373.
NCI-H1792 was tested, and the relative viability was 0.29.
Work on NCI-H1355 yielded a relative viability of 0.38.
In the case of NCI-H322M, the relative viability was 0.517.
NCI-H1437 gave a relative viability of 0.45.
NCI-H1755 showed a relative viability of 0.771.
Cell Line NCI-H2085 has a relative viability of 0.47.
For HCC-15, the relative viability was 0.351.
With NCI-H1793 the relative viability was 0.422.
In the case of RERF-LC-KJ, the relative viability was 0.783.
In the case of EKVX, the relative viability was 0.327.
In the case of LC-2-ad, the relative viability was 0.855.
NCI-H1944 was tested, and the relative viability was 0.448.
With NCI-H1975 the relative viability was 0.32.
